The source of these data is patent publication US20100137313A1 (ASTRAZENECA AB, priority 2008, published 2010).

Sequence of S. pneumoniae Topoisomerase IV ATPase (ParE) (Q59961 whole entry): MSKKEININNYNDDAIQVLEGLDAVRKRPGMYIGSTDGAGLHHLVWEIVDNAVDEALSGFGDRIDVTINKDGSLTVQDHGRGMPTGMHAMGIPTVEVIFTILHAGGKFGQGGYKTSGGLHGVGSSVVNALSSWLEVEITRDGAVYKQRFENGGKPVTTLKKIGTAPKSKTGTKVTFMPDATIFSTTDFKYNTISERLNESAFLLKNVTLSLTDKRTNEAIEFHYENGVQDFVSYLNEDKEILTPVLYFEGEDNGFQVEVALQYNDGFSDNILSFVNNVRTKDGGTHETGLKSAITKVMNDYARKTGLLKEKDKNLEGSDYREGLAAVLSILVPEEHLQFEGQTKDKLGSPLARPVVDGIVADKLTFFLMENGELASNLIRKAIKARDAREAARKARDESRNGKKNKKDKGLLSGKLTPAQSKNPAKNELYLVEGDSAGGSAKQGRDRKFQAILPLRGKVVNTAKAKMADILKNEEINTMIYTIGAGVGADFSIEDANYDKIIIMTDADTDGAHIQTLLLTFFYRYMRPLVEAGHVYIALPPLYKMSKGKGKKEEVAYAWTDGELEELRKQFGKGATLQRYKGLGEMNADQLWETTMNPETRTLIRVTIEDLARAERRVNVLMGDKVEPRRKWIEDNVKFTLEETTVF

The experiment has as its target S. pneumoniae Topoisomerase IV ATPase (ParE) (Streptococcus pneumoniae serotype 4, UniProt Q59961). In words: S. pneumoniae Topoisomerase IV ATPase inhibition. The format is biochemical. Particulars: values marked * are an average of two or more data points, read-out: % Inh (13 μM) of S. pneumoniae Topoisomerase IV ATPase. In a few lines:
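Phosphate release by ParE ATPase from S. pneumoniae read colorimetrically (malachite green, 650 nm), enzyme 1.25 nM, ATP 160 μM, salmon sperm DNA present, buffer 20 mM Tris pH 8.0 with 8 mM MgCl2. IC50 over 10 compound concentrations, EDTA (20 μM) and DMSO controls defining inhibition range.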
In the case of `COc1cc(Nc2ncc(-c3cncc(C(=O)NCCS(C)(=O)=O)c3)c(-n3nc(C(F)(F)F)cc3C)n2)cc(OC)c1` [Example 685, 5-{2-[(3,5-dimethoxyphenyl)amino]-4-[5-methyl-3-(trifluoromethyl)-1H-pyrazol-1-yl]pyrimidin-5-yl}-N-[2-(methylsulfonyl)ethyl]pyridine-3-carboxamide], the inhibition at 13 µM amounted to 100%.
The same measure for `COc1cc(Nc2ncc(-c3cncc(C(=O)NS(C)(=O)=O)c3)c(-n3ccc(C(F)(F)F)n3)n2)cc(OC)c1` [Example 686, 5-{2-[(3,5-dimethoxyphenyl)amino]-4-[3-(trifluoromethyl)-1H-pyrazol-1-yl]pyrimidin-5-yl}-N-(methylsulfonyl)pyridine-3-carboxamide]: 100%; for `COc1cc(Nc2ncc(-c3cncc(C(=O)NS(C)(=O)=O)c3)c(-n3nc(C(F)(F)F)cc3C)n2)cc(OC)c1` [Example 687, 5-{2-[(3,5-dimethoxyphenyl)amino]-4-[5-methyl-3-(trifluoromethyl)-1H-pyrazol-1-yl]pyrimidin-5-yl}-N-(methylsulfonyl)pyridine-3-carboxamide]: 100%; for `CC(=O)c1cccc(Nc2ncc(-c3cccc(/C=C/C(=O)O)c3)c(-n3ccc(C(F)(F)F)n3)n2)c1` [Example 688, (2E)-3-(3-{2-[(3-acetylphenyl)amino]-4-[3-(trifluoromethyl)-1H-pyrazol-1-yl]pyrimidin-5-yl}phenyl)prop-2-enoic acid]: 99%.
The same measure for `CC(=O)c1cccc(Nc2ncc(-c3cccc(/C=C/C(=O)O)c3)c(-n3nc(C(F)(F)F)cc3C)n2)c1` [Example 689, (2E)-3-(3-{2-[(3-acetylphenyl)amino]-4-[5-methyl-3-(trifluoromethyl)-1H-pyrazol-1-yl]pyrimidin-5-yl}phenyl)prop-2-enoic acid]: 99%; for `NC(=O)c1cccc(Nc2ncc(-c3cccc(/C=C/C(=O)O)c3)c(-n3ccc(C(F)(F)F)n3)n2)c1` [Example 690, (2E)-3-(3-{2-[(3-carbamoylphenyl)amino]-4-[3-(trifluoromethyl)-1H-pyrazol-1-yl]pyrimidin-5-yl}phenyl)prop-2-enoic acid]: 100%.
As to `N#Cc1cccc(Nc2ncc(-c3cccc(/C=C/C(=O)O)c3)c(-n3ccc(C(F)(F)F)n3)n2)c1` [Example 692, (2E)-3-(3-{2-[(3-cyanophenyl)amino]-4-[3-(trifluoromethyl)-1H-pyrazol-1-yl]pyrimidin-5-yl}phenyl)prop-2-enoic acid], the inhibition at 13 µM is 97%.
As to `Cc1cc(C(F)(F)F)nn1-c1nc(Nc2cccc(C#N)c2)ncc1-c1cccc(/C=C/C(=O)O)c1` [Example 693, (2E)-3-(3-{2-[(3-cyanophenyl)amino]-4-[5-methyl-3-(trifluoromethyl)-1H-pyrazol-1-yl]pyrimidin-5-yl}phenyl)prop-2-enoic acid], the inhibition at 13 µM stood at 97%.
The same measure for `Cc1cccc(Nc2ncc(-c3cccc(/C=C/C(=O)O)c3)c(-n3ccc(C(F)(F)F)n3)n2)c1` [Example 694, (2E)-3-(3-{2-[(3-methylphenyl)amino]-4-[3-(trifluoromethyl)-1H-pyrazol-1-yl]pyrimidin-5-yl}phenyl)prop-2-enoic acid]: 100%; for `Cc1cccc(Nc2ncc(-c3cccc(/C=C/C(=O)O)c3)c(-n3nc(C(F)(F)F)cc3C)n2)c1` [Example 695, (2E)-3-(3-{2-[(3-methylphenyl)amino]-4-[5-methyl-3-(trifluoromethyl)-1H-pyrazol-1-yl]pyrimidin-5-yl}phenyl)prop-2-enoic acid]: 100%.
The same measure for `Cc1cccc(Nc2ncc(-c3cncc(C(=O)O)c3)c(-n3nc(C(F)(F)F)cc3C)n2)c1` [Example 711, 5-{2-[(3-methylphenyl)amino]-4-[5-methyl-3-(trifluoromethyl)-1H-pyrazol-1-yl]pyrimidin-5-yl}pyridine-3-carboxylic acid]: 100%.
The same measure for `COc1ncc(-c2cnc(Nc3cccc(C(C)=O)c3)nc2-n2ccc(C(F)(F)F)n2)cc1C(=O)O` [Example 720, 5-{2-[(3-acetylphenyl)amino]-4-[3-(trifluoromethyl)-1H-pyrazol-1-yl]pyrimidin-5-yl}-2-methoxypyridine-3-carboxylic acid]: 100%.
For the compound `COc1ncc(-c2cnc(Nc3cccc(C(C)=O)c3)nc2-n2nc(C(F)(F)F)cc2C)cc1C(=O)O` [Example 721, 5-{2-[(3-acetylphenyl)amino]-4-[5-methyl-3-(trifluoromethyl)-1H-pyrazol-1-yl]pyrimidin-5-yl}-2-methoxypyridine-3-carboxylic acid], the inhibition at 13 µM came out at 100%.
As to `COc1ncc(-c2cnc(Nc3cccc(C(N)=O)c3)nc2-n2ccc(C(F)(F)F)n2)cc1C(=O)O` [Example 722, 5-{2-[(3-carbamoylphenyl)amino]-4-[3-(trifluoromethyl)-1H-pyrazol-1-yl]pyrimidin-5-yl}-2-methoxypyridine-3-carboxylic acid], the inhibition at 13 µM came out at 93%.
As to `COc1ncc(-c2cnc(Nc3cccc(C(N)=O)c3)nc2-n2nc(C(F)(F)F)cc2C)cc1C(=O)O` [Example 723, 5-{2-[(3-carbamoylphenyl)amino]-4-[5-methyl-3-(trifluoromethyl)-1H-pyrazol-1-yl]pyrimidin-5-yl}-2-methoxypyridine-3-carboxylic acid], the inhibition at 13 µM came to 94%.
In the case of `COc1ncc(-c2cnc(Nc3cccc(C)c3)nc2-n2ccc(C(F)(F)F)n2)cc1C(=O)O` [Example 726, 2-methoxy-5-{2-[(3-methylphenyl)amino]-4-[3-(trifluoromethyl)-1H-pyrazol-1-yl]pyrimidin-5-yl}pyridine-3-carboxylic acid], the inhibition at 13 µM was 100%.
As for `COc1cc(C#N)cc(Nc2ncc(-c3cccc(/C=C/C(=O)O)c3)c(-n3ccc(C(F)(F)F)n3)n2)c1` [Example 728, (2E)-3-(3-{2-[(3-cyano-5-methoxyphenyl)amino]-4-[3-(trifluoromethyl)-1H-pyrazol-1-yl]pyrimidin-5-yl}phenyl)prop-2-enoic acid], the inhibition at 13 µM turned out to be 100%.
The same measure for `COc1cc(C#N)cc(Nc2ncc(-c3cccc(/C=C/C(=O)O)c3)c(-n3nc(C(F)(F)F)cc3C)n2)c1` [Example 729, (2E)-3-(3-{2-[(3-cyano-5-methoxyphenyl)amino]-4-[5-methyl-3-(trifluoromethyl)-1H-pyrazol-1-yl]pyrimidin-5-yl}phenyl)prop-2-enoic acid]: 89%; for `COc1cc(C#N)cc(Nc2ncc(-c3cncc(C(=O)O)c3)c(-n3ccc(C(F)(F)F)n3)n2)c1` [Example 732, 5-{2-[(3-cyano-5-methoxyphenyl)amino]-4-[3-(trifluoromethyl)-1H-pyrazol-1-yl]pyrimidin-5-yl}pyridine-3-carboxylic acid]: 100%; for `COc1cc(C#N)cc(Nc2ncc(-c3cncc(C(=O)O)c3)c(-n3nc(C(F)(F)F)cc3C)n2)c1` [Example 733, 5-{2-[(3-cyano-5-methoxyphenyl)amino]-4-[5-methyl-3-(trifluoromethyl)-1H-pyrazol-1-yl]pyrimidin-5-yl}pyridine-3-carboxylic acid]: 100%.
The same measure for `COc1cc(C#N)cc(Nc2ncc(-c3cnc(OC)c(C(=O)O)c3)c(-n3ccc(C(F)(F)F)n3)n2)c1` [Example 736, 5-{2-[(3-cyano-5-methoxyphenyl)amino]-4-[3-(trifluoromethyl)-1H-pyrazol-1-yl]pyrimidin-5-yl}-2-methoxypyridine-3-carboxylic acid]: 100%.
For the compound `COc1cc(C#N)cc(Nc2ncc(-c3cnc(OC)c(C(=O)O)c3)c(-n3nc(C(F)(F)F)cc3C)n2)c1` [Example 737, 5-{2-[(3-cyano-5-methoxyphenyl)amino]-4-[5-methyl-3-(trifluoromethyl)-1H-pyrazol-1-yl]pyrimidin-5-yl}-2-methoxypyridine-3-carboxylic acid], the inhibition at 13 µM was 97%.
Regarding `COc1ncc(-c2cnc(Nc3cccc(Cl)c3)nc2-n2ccc(C(F)(F)F)n2)cc1C(=O)O` [Example 742, 5-{2-[(3-chlorophenyl)amino]-4-[3-(trifluoromethyl)-1H-pyrazol-1-yl]pyrimidin-5-yl}-2-methoxypyridine-3-carboxylic acid], the inhibition at 13 µM is 100%.
The same measure for `COc1ncc(-c2cnc(Nc3cccc(Cl)c3)nc2-n2nc(C(F)(F)F)cc2C)cc1C(=O)O` [Example 743, 5-{2-[(3-chlorophenyl)amino]-4-[5-methyl-3-(trifluoromethyl)-1H-pyrazol-1-yl]pyrimidin-5-yl}-2-methoxypyridine-3-carboxylic acid]: 94%; for `Cc1cc(C(F)(F)F)nn1-c1nc(Nc2cccc(Cl)c2)ncc1-c1cncc(C(=O)O)c1` [Example 744, 5-{2-[(3-chlorophenyl)amino]-4-[5-methyl-3-(trifluoromethyl)-1H-pyrazol-1-yl]pyrimidin-5-yl}pyridine-3-carboxylic acid]: 100%.
The same measure for `COc1ncc(-c2cnc(Nc3cc(C)cc(F)c3)nc2-n2ccc(C(F)(F)F)n2)cc1C(=O)O` [Example 754, 5-{2-[(3-fluoro-5-methylphenyl)-amino]-4-[3-(trifluoromethyl)-1H-pyrazol-1-yl]pyrimidin-5-yl}-2-methoxypyridine-3-carboxylic acid]: 100%; for `COc1ncc(-c2cnc(Nc3cc(C)cc(F)c3)nc2-n2nc(C(F)(F)F)cc2C)cc1C(=O)O` [Example 755, 5-{2-[(3-fluoro-5-methylphenyl)amino]-4-[5-methyl-3-(trifluoromethyl)-1H-pyrazol-1-yl]pyrimidin-5-yl}-2-methoxypyridine-3-carboxylic acid]: 100%.
